# Reference: patent US20140314697A1, “Method for Inhibiting Inflammation and Reducing Melanophilin Expression with Glycine Derivatives And the Composition Thereof” (CORUM INC., priority 2013, published 2014)
# Marks after values point to notes of the source that are not given here.
# Key:
# [1] = system: Mouse MIP-2 secretion, RAW264.7; assay: Mouse MIP-2 production in Raw264.7 cells (ELISA); assay type: cell-based; conditions: for Mouse MIP-2 Content, Average / Mouse MIP-2 Content, Entry 2 / Mouse MIP-2 Content, Entry 1 / Mouse MIP-2 Content, Entry 3: Raw264.7, LPS & IFN-r, 24 hours, Positive Control 100%; for Mouse MIP-2 Content, Entry 2: passage N + 3; for Mouse MIP-2 Content, Entry 1: passage N + 5; for Mouse MIP-2 Content, Entry 3: passage N + 6
# Method: Murine macrophage cell line RAW264.7 (BCRC No. 60001)
# Complete Medium (as negative control): DMEM medium with 10% Fetal Bovine Serum
# Testing Medium (as positive control): 100 ng/mL LPS and 10 ng/mL IFN-r in Complete Medium
# a. Rinse the confluent Raw264.7 cells with sterile D-PBS then trypsinize all cells and perform cell counting.
# b. Dilute the cell density to 2E+05/mL and seed 0.1 mL cell liquid (equals to 2E+04 cells) each well in 96-well plate.
# c. Incubate Raw264.7 cells at 37° C., 5% CO2 for about 24 hours.
# d. Prepared 2× dosing solution of testing material in 2× Testing Medium (means w/ 200 ng/mL ? LPS&20 ng/mL ? IFN-r): 0.8%, 0.4%, 0.2%, 0.1% (Final testing material: 0.4%, 0.2%, 0.1%, 0.05%)
# e. […] Add 100 μL controls and testing materials in different concentrations into Raw264.7 cells in 96 well plates. Controls/Test materials should be tested at least three wells.
# f. Incubate Raw264.7 cells at 37° C., 5% CO2 for about 24 hours.
# g. After incubating for about 24 hours, collect the supernatant of controls and testing materials.
# h. Determine the IL-6/MIP-2 content of the supernatant by R&D ELISA kit as mentioned previously.
# Raw264.7 cells = assay: Cell viability on Raw264.7; assay type: cell-based, Murine; conditions: for cell viability on Raw264.7, Entry 2: passage N + 5; for cell viability on Raw264.7, Entry 2 / cell viability on Raw264.7, Entry 3 / cell viability on Raw264.7, Entry 1 / cell viability on Raw264.7, Average: with LPS & IFN-r, Positive Control 100%; for cell viability on Raw264.7, Entry 3: passage N + 6; for cell viability on Raw264.7, Entry 1: passage N + 7
# Method: (§1) 4.4. Cell Viability is Tested by Neutral Red Uptake Experience or MTT Assay.
# [2] = system: Mlph (melanophilin) protein in B16-F10 cells; assay: Reduction of melanophilin expression on translational level (western blot); assay type: cell-based, Murine; conditions: B16-F10 w/FSK; for Mlph protein expression level, Average / Mlph protein expression level, Entry 1 / Mlph protein expression level, Entry 2 / Mlph protein expression level, Entry 3: about 48 hours, Positive Control 100%
# Method: Murine melanoma cell line B16-F10 (BCRC No. 60031)
# Complete Medium (as negative control): DMEM with 10% Fetal Bovine Serum
# Testing Medium (as positive control): 20 μM forskolin (FSK) in Complete Medium
# a. Rinse the confluent B16-F10 cells with sterile D-PBS then trypsinize all cells and perform cell counting.
# b. Seeding 2.5E+05 cells per 6-cm dish.
# c. Incubate B16F10 cells at 37° C., 5% CO2 for about 24 hours.
# d. Prepared 0.5%/0.25%/0.125% testing material in Testing Medium.
# e. Discard the medium and add 3 mL controls and testing material into B16-F10 cells in 6-cm dish.
# f. Incubate B16-F10 cells at 37° C., 5% CO2 for about 48 hour.
# g. After incubating for about 48 hours, discard the supernatant and wash the B16-F10 cells with sterile D-PBS.
# h. Mlph protein expression is measured by western blot. Western blot conditions: • Loading protein amount: 40 μg/well • Protein transfer by Semi-dry Transfer Apparatus • Immunoblot with Primary Ab (1:250 dilution) at 4° C. overnight • Incubate with secondary Ab (1:5000 dilution) at room temperature for 1 hour • Detection was performed with the ECL system • Relative quantification of protein expression was measured by IMAGEJ free software). β-actin was used as the internal control for normalization • Data Analysis: […]
# NHEK cells = assay: Cell viability on NHEK; assay type: cell-based, Human; conditions: for cell viability on NHEK, Average / cell viability on NHEK, Entry 1 / cell viability on NHEK, Entry 2 / cell viability on NHEK, Entry 3: 40 mJ/cm^2 UVB, Positive Control 100%; for cell viability on NHEK, Entry 1: passage 2 + 2; for cell viability on NHEK, Entry 2 / cell viability on NHEK, Entry 3: passage 2 + 3
# Method: as §1
# age spot = assay: Skin whitening test: age spot photography, Reverse Photo Engineering quantitative analysis; assay type: in vivo, human; conditions: for Age Spot Reduction - Reverse Photo Engineering Data, Max % Improvement / Age Spot Reduction - Reverse Photo Engineering Data, % Difference: 0.2% Ac-Gly-β-Ala sample
# Method: In this example, the in-vivo skin test is finished by AMA Laboratories USA. The skin color changes are evaluated with Minolta chromameter color computer system. The Age spot photography is evaluated with Reverse Photo Engineering Quantitative Analysis.
# In terms of age spot photography, the participants were 5 women aged 38-49 years old, wherein four of the participants were caucasian, and one was Asian. The participants were tested before (baseline), and after using 14, 28, 56 days with high-resolution digital camera, then Reverse Photo Engineering quantitative analysis to perform the age spot change evaluation.
compound,measurement,setting,value
"CC(=O)NCC(=O)NCCC(=O)O [Ac-Gly-β-Ala, 3-(2-acetylamino-acetylamino)-propionic acid]","MIP-2 production, dose dependence","[1]; 0.05%-0.4%, Raw264.7",inhibited MIP-2 production in dose-dependent manner
same,"Mouse MIP-2 Content, Average",[1]; 0.05%,78%
same,"Mouse MIP-2 Content, Entry 2",[1]; 0.05%,79%
same,"Mouse MIP-2 Content, Entry 1",[1]; 0.05%,75%
same,"Mouse MIP-2 Content, Entry 3",[1]; 0.05%,81%
same,"Mouse MIP-2 Content, Average",[1]; 0.10%,65%
same,"Mouse MIP-2 Content, Entry 2",[1]; 0.10%,66%
same,"Mouse MIP-2 Content, Entry 1",[1]; 0.10%,64%
same,"Mouse MIP-2 Content, Entry 3",[1]; 0.10%,65%
same,"Mouse MIP-2 Content, Average",[1]; 0.20%,48%
same,"Mouse MIP-2 Content, Entry 2",[1]; 0.20%,44%
same,"Mouse MIP-2 Content, Entry 1",[1]; 0.20%,50%
same,"Mouse MIP-2 Content, Entry 3",[1]; 0.20%,48%
same,"Mouse MIP-2 Content, Average",[1]; 0.40%,31%
same,"Mouse MIP-2 Content, Entry 2",[1]; 0.40%,32%
same,"Mouse MIP-2 Content, Entry 1",[1]; 0.40%,21%
same,"Mouse MIP-2 Content, Entry 3",[1]; 0.40%,38%
same,"cell viability on Raw264.7, Entry 2",Raw264.7 cells; 0.05%,101%
same,"cell viability on Raw264.7, Entry 3",Raw264.7 cells; 0.05%,89%
same,"cell viability on Raw264.7, Entry 1",Raw264.7 cells; 0.05%,101%
same,"cell viability on Raw264.7, Average",Raw264.7 cells; 0.05%,96%
same,"cell viability on Raw264.7, Entry 2",Raw264.7 cells; 0.10%,104%
same,"cell viability on Raw264.7, Entry 3",Raw264.7 cells; 0.10%,87%
same,"cell viability on Raw264.7, Entry 1",Raw264.7 cells; 0.10%,95%
same,"cell viability on Raw264.7, Average",Raw264.7 cells; 0.10%,97%
same,"cell viability on Raw264.7, Entry 2",Raw264.7 cells; 0.20%,98%
same,"cell viability on Raw264.7, Entry 3",Raw264.7 cells; 0.20%,91%
same,"cell viability on Raw264.7, Entry 1",Raw264.7 cells; 0.20%,90%
same,"cell viability on Raw264.7, Average",Raw264.7 cells; 0.20%,100%
same,"cell viability on Raw264.7, Entry 2",Raw264.7 cells; 0.40%,77%
same,"cell viability on Raw264.7, Entry 3",Raw264.7 cells; 0.40%,89%
same,"cell viability on Raw264.7, Entry 1",Raw264.7 cells; 0.40%,86%
same,"cell viability on Raw264.7, Average",Raw264.7 cells; 0.40%,88%
same,Cell viability,"Raw264.7 cells; Raw264.7, all of dosing solution (0.05-0.4%)",higher than 85%
same,"Mlph protein expression level, Average",[2]; 0.125%,71.3%
same,"Mlph protein expression level, Entry 1",[2]; 0.125%,66.8%
same,"Mlph protein expression level, Entry 2",[2]; 0.125%,65.7%
same,"Mlph protein expression level, Entry 3",[2]; 0.125%,81.2%
same,"Mlph protein expression level, Average",[2]; 0.25%,62.0%
same,"Mlph protein expression level, Entry 1",[2]; 0.25%,49.4%
same,"Mlph protein expression level, Entry 2",[2]; 0.25%,12.8%
same,"Mlph protein expression level, Entry 3",[2]; 0.25%,123.8%
same,"Mlph protein expression level, Average",[2]; 0.5%,24.3%
same,"Mlph protein expression level, Entry 1",[2]; 0.5%,36.5%
same,"Mlph protein expression level, Entry 2",[2]; 0.5%,10.6%
same,"Mlph protein expression level, Entry 3",[2]; 0.5%,25.8%
same,effect on Mlph in translational (protein) level,[2],inhibitory effect
same,"cell viability on NHEK, Average",NHEK cells; 0.01%,80%
same,"cell viability on NHEK, Entry 1",NHEK cells; 0.01%,80%
same,"cell viability on NHEK, Entry 2",NHEK cells; 0.01%,82%
same,"cell viability on NHEK, Entry 3",NHEK cells; 0.01%,76%
same,"cell viability on NHEK, Average",NHEK cells; 0.03%,84%
same,"cell viability on NHEK, Entry 1",NHEK cells; 0.03%,88%
same,"cell viability on NHEK, Entry 2",NHEK cells; 0.03%,80%
same,"cell viability on NHEK, Entry 3",NHEK cells; 0.03%,83%
same,"cell viability on NHEK, Average",NHEK cells; 0.05%,93%
same,"cell viability on NHEK, Entry 1",NHEK cells; 0.05%,93%
same,"cell viability on NHEK, Entry 2",NHEK cells; 0.05%,90%
same,"cell viability on NHEK, Entry 3",NHEK cells; 0.05%,95%
same,"cell viability on NHEK, Average",NHEK cells; 0.10%,108%
same,"cell viability on NHEK, Entry 1",NHEK cells; 0.10%,109%
same,"cell viability on NHEK, Entry 2",NHEK cells; 0.10%,103%
same,"cell viability on NHEK, Entry 3",NHEK cells; 0.10%,110%
same,"cell viability on NHEK, Average",NHEK cells; 0.20%,109%
same,"cell viability on NHEK, Entry 1",NHEK cells; 0.20%,106%
same,"cell viability on NHEK, Entry 2",NHEK cells; 0.20%,107%
same,"cell viability on NHEK, Entry 3",NHEK cells; 0.20%,113%
same,"cell viability on NHEK, Average",NHEK cells; 0.40%,93%
same,"cell viability on NHEK, Entry 1",NHEK cells; 0.40%,106%
same,"cell viability on NHEK, Entry 2",NHEK cells; 0.40%,95%
same,"cell viability on NHEK, Entry 3",NHEK cells; 0.40%,79%
same,Cell viability,"NHEK cells; NHEK, all of dosing solution",higher than 80%
same,"Age Spot Reduction - Reverse Photo Engineering Data, Max % Improvement",age spot; Day 14,−51.67%
same,"Age Spot Reduction - Reverse Photo Engineering Data, % Difference",age spot; Day 14 vs baseline,−41.47%*
same,"Age Spot Reduction - Reverse Photo Engineering Data, Max % Improvement",age spot; Day 28,−80.63%
same,"Age Spot Reduction - Reverse Photo Engineering Data, % Difference",age spot; Day 28 vs baseline,−63.37%
same,"Age Spot Reduction - Reverse Photo Engineering Data, Max % Improvement",age spot; Day 56,−87.40%
same,"Age Spot Reduction - Reverse Photo Engineering Data, % Difference",age spot; Day 56 vs baseline,−73.07%*
same,quantitative analyzed data for the age spot change evaluation,age spot; sample containing 0.2% Ac-Gly-β-Ala,significantly decreased
